Results published in patent US20210196714A1, “COMPOSITIONS AND METHODS FOR TREATING DISORDERS CHARACTERIZED WITH ABERRANT RAS/MAPK SIGNALING” (Duke University, priority 2018, published 2021).
“Also recorded” adds a separate entry of the source.

Tests used:
[1] = system: zebrafish kmt2d morphants; assay: Rescue of convergent-extension (CE) phenotype in kmt2d morphants; type: in vivo; conditions: 100 nM; for rescue of CE defects, repeated experiments: repeated four times by two investigators; for proportion of embryos showing CE defects vs vehicle (DMSO): primary screen, kmt2d-MO, 8-10 somite stage
Description: FIG. 1: In vivo screen using BRAF/MEK/ERK inhibitors. (a) Flow chart of the experimental design. We started the screening with 29 compounds (27 active BRAF/MEK/ERK inhibitors, and 2 negative controls). 26 compounds passed the solubility test and 24 of those passed the toxicity test. For the primary screen, 24 compounds were assessed for their ability to rescue the convergent-extension (CE) phenotype of zebrafish kmt2d morphants, followed by rescue tests of additional phenotypes (jaw and brain) within the kmt2d morphant, or CE of additional genetic KS models. (b) Toxicity results. Twenty embryos at the 8-cell stage were incubated in egg water containing 100 nM, 1 μM, and 10 μM of the 26 compounds. After 24 hours, larvae were scored for toxicity. Black bar: death; grey bar: abnormal morphology; white bar: nontoxic. (c) Embryos were injected with kmt2d-MO at the 2-4 cell stage and soaked in egg water containing 100 nM of each compound at the 8-cell stage. After 24 hours, larvae were scored for CE. […] The efficacy of each compound was determined by a chi-square test in which Class I and Class II were considered together. Note that the compounds were tested in two groups (compounds 1-19 and compounds 20-29), each with its own set of controls.
This library was screened against validated transient suppression reagent for kmt2d. Experiments injected kmt2d-morpholino (MO) into one- to two-cell-stage embryos and soaked them in egg water containing 100 nM of each compound approximately one hour after injection (eight-cell stage).
Morpholinos (MO) were obtained from Gene Tools (Gene Tools, LLC, Philomath, Oreg., USA) and have been described previously (see, Bogershausen, N. et al. J Clin Invest 125, 3585-99 (2015)); kmt2d-MO: 5′-[…]-3′(SEQ ID NO: 1) (5 ng); kdm6a-MO: 5′-[…] (SEQ ID NO: 2) (10 ng). kmt2d-MO and kdm6a-MO was injected into wild type (WT) Ekkwill (EK) zebrafish embryos obtained from natural matings at the 1-4 cell stage. CRISPR target sequences (rap1a: 5′-[…]-3′ (SEQ ID NO: 3) [120 pg], rap1b: 5′-[…]-3′ (SEQ ID NO: 4) [120 pg] (see, Bogershausen, N. et al. J Clin Invest 125, 3585-99 (2015)), and kmt2d: 5′-[…] (SEQ ID NO: 5) [50 pg]) were identified by crispr.mit.edu and cloned into pT7-gRNA (Addgene, Cambridge, USA) following the protocol described in http://www.addgene.org/crispr/Chen/. Guide (g)RNAs were synthesized using the T7 MEGAshortscript kit (ThermoFisher Scientific). […]
For convergence and extension (CE) phenotyping, embryos were scored as described (see, Leitch, C. C. et al. Nat Genet 40, 443-8 (2008)) at the 8-10 somite stage, and images were captured using an AZ100 microscope and NIS Elements software (Nikon). […] The distance between Meckel's (MK) and ceratohyal (CH) cartilages was measured on ventral bright field images with Image J (NIH). […]

[2] = system: zebrafish kmt2d morphants; assay: Jaw defect (MK-CH cartilage distance, Alcian blue) in kmt2d morphants; type: in vivo; conditions: for jaw defect, distance between MK and CH cartilages: 100 nM, 5 dpf
Description: To test the first criterion, the CE rescue paradigm was repeated four times by two different investigators, each using independent zebrafish adult stocks.
Morpholinos (MO) were obtained from Gene Tools (Gene Tools, LLC, Philomath, Oreg., USA) and have been described previously (see, Bogershausen, N. et al. J Clin Invest 125, 3585-99 (2015)); kmt2d-MO: 5′-[…]-3′(SEQ ID NO: 1) (5 ng); kdm6a-MO: 5′-[…] (SEQ ID NO: 2) (10 ng). kmt2d-MO and kdm6a-MO was injected into wild type (WT) Ekkwill (EK) zebrafish embryos obtained from natural matings at the 1-4 cell stage. CRISPR target sequences (rap1a: 5′-[…]-3′ (SEQ ID NO: 3) [120 pg], rap1b: 5′-[…]-3′ (SEQ ID NO: 4) [120 pg] (see, Bogershausen, N. et al. J Clin Invest 125, 3585-99 (2015)), and kmt2d: 5′-[…] (SEQ ID NO: 5) [50 pg]) were identified by crispr.mit.edu and cloned into pT7-gRNA (Addgene, Cambridge, USA) following the protocol described in http://www.addgene.org/crispr/Chen/. Guide (g)RNAs were synthesized using the T7 MEGAshortscript kit (ThermoFisher Scientific). An injection solution of gRNA plus 100 pg Cas9 protein (PNA Bio) was injected into wild type Ekkwill (EK) zebrafish embryos obtained from natural matings at the 1-cell stage. Embryos were treated with compound at the 8-cell stage. All compounds were dissolved in dimethyl sulfoxide (DMSO; 10 mM), and subsequently diluted with water to 100 μM. Using egg water, we then diluted the 100 μM solution to the concentration specific to each experiment in egg water. Embryos were incubated at 28.5° C. and egg water containing compound was replaced daily until phenotyping, mass spectrometry, or immunoblotting analysis.
For convergence and extension (CE) phenotyping, embryos were scored as described (see, Leitch, C. C. et al. Nat Genet 40, 443-8 (2008)) at the 8-10 somite stage, and images were captured using an AZ100 microscope and NIS Elements software (Nikon). To assess mandibular phenotypes, Alcian blue staining was used to stain cartilage structures in 5 dpf larvae as described (see, Chassaing, N. et al. J Med Genet 49, 373-9 (2012)). Stained larvae were imaged in glycerol using an SMZ745T stereomicroscope (Nikon). The distance between Meckel's (MK) and ceratohyal (CH) cartilages was measured on ventral bright field images with Image J (NIH). For brain cell proliferation assays, injected embryos were fixed in Dent's solution at 2 dpf. […] Fluorescence signal on embryo heads was imaged with the Nikon AZ100 microscope and DS-Qi1MC digital camera using […] Z-stacks to generate extended depth of focus images. Cell numbers were quantified using the ImageJ ICTN plugin (NIH). […]

Structure (SMILES)	rescue of CE defects, repeated experiments [1]	proportion of embryos showing CE defects vs vehicle (DMSO) [1]	jaw defect, distance between MK and CH cartilages [2]	jaw defect, distance between MK and CH cartilages ([2]; listed as dmDf)	jaw rescue at dosages beyond 100 nM ([2]; dose response, above 100 nM up to 1 μM)
CC[C@@H](CO)Nc1ncc(C)c(-c2c[nH]c(C(=O)N[C@H](CO)c3cccc(Cl)c3)c2)n1 [Compound 2, N-((S)-1-(3-chlorophenyl)-2-hydroxyethyl)-4-(2-(((S)-1-hydroxybutan-2-yl)amino)-5-methylpyrimidin-4-yl)-1H-pyrrole-2-carboxamide]	rescue CE defects; also recorded: consistent and significant rescue	decreased the proportion of embryos showing CE defects	ameliorates this defect; also recorded: rescue significantly	–	–
CC(C)c1nc(-c2cccc(NS(=O)(=O)c3c(F)cccc3F)c2F)c(-c2ccnc(N)n2)s1 [Compound 8, desmethyl-Dabrafenib]	rescue CE defects; also recorded: consistent and significant rescue	decreased the proportion of embryos showing CE defects	ameliorates this defect; also recorded: rescue significantly	able to rescue the jaw layout	higher dosages did not improve efficacy any further
